In series [1] the test system is Serratia marcescens IID 618. Briefly: Minimal inhibitory concentration, agar plate dilution method. Conditions: IID618. In kind it is cell-based. As to the method: (§1) The antibacterial activities of the compounds of the present invention against various bacteria (inoculum size : 10^6 cells/ml) were tested by the agar plate dilution method, and the results are shown in the following Table 1.

Series [2] deals with Enterobactor cloacae IFO 13525. Described as above. In kind it is cell-based. On the procedure: as §1
Series [3] concerns Klebsiella pneumoniae T 25. The description is as above. Conditions: T25. The format is cell-based. As to the method:
as §1

The test system of series [4] is Pseudomonas aeruginosa NCTC 10490. Described as above. In kind it is cell-based. Conditions: NCTC10490. As to the method: as §1
For series [5], the system named is Escherichia coli NIHJ JC-2. The description is as above. The format is cell-based. Conditions: NIHJJC2. As to the method:
as §1

Series [6] in a line: Concentration of the compound in blood after oral administration to rats (bioassay). The format is in vivo, Male wister rats. Conditions: rat, 50 mg/kg. On the procedure:
Male wister rats (7 weeks old) were administered orally with the test compound, and the change of the concentration of the compound in blood was measured.
Dosage of the test compound: 50 mg/kg
Quantitative method: Bioassy
test bacterium: Escherichia coli SC507)

Setting [7] is: Serratia marcescens IID 618, inoculum size 10^6 cells/ml, read-out: MIC.
Where [8] appears, read: Enterobactor cloacae IFO 13525, inoculum size 10^6 cells/ml, read-out: MIC.
Setting [9] is: Klebsiella pneumoniae T 25, inoculum size 10^6 cells/ml, read-out: MIC.
The mark [10] stands for this setting: Pseudomonas aeruginosa NCTC 10490, inoculum size 10^6 cells/ml, read-out: MIC.
The mark [11] stands for this setting: Escherichia coli NIHJ JC-2, inoculum size 10^6 cells/ml, read-out: MIC.

SMILES strings stand for the structures. Values after ≈ are worked out from the molar mass of the structure shown. Structures can show the parent of a compound that is named as a salt. Where two headings read alike, the source gives them in different places.

For `C=CCOC(=O)/C=C\SC1=C(C(=O)[O-])N2C(=O)[C@@H](NC(=O)/C(=N\OCC(=O)[O-])c3csc(N)n3)[C@H]2SC1.[Na+].[Na+]` [D, 7β-{α-(2-aminothiazole-4-yl)-α-[(Z)-carboxymethoxyimino]acetamido}-3-[(Z)-2-allyloxycarbonylvinylthio]-3-cephem-4-carboxylic acid sodium salt], the MIC (usually the least concentration at which growth counts as inhibited) in series [1] (Serratia marcescens) is 0.39 µg/mL; in series [2] it was 12.5 µg/mL; in series [3] (Klebsiella pneumoniae), 0.39 µg/mL; in series [4] (Pseudomonas aeruginosa) it was 6.25 µg/mL; in series [5] (Escherichia coli) it was 0.39 µg/mL.
On to `CC(C)OC(=O)/C=C\SC1=C(C(=O)O)N2C(=O)[C@@H](NC(=O)/C(=N\OCC(=O)O)c3csc(N)n3)[C@H]2SC1` [C], for which the MIC turned out to be 0.39 µg/mL (≈ 0.682 µM) in series [1] (setting [7]); 6.25 µg/mL (≈ 10.9 µM) in series [2] (setting [8]); 0.39 µg/mL (≈ 0.682 µM) in series [3] (setting [9]); 12.5 µg/mL (≈ 21.9 µM) in series [4] (setting [10]); 0.39 µg/mL (≈ 0.682 µM) in series [5] (setting [11]).
Regarding `COC(=O)/C=C\SC1=C(C(=O)O)N2C(=O)[C@@H](NC(=O)/C(=N\OCC(=O)O)c3csc(N)n3)[C@H]2SC1` [A, 7β-{α-(2-aminothiazole-4-yl)-β-[(Z)-carboxymethoxyimino]acetamido)}-3[(Z)-2-methoxycarbonylvinylthio]-3-cephem-4-carboxylic acid sodium salt], the concentration at 1 h in series [6] turned out to be 37800 ng/mL. In series [6], this compound returned a concentration at 2 h of 38900 ng/mL. This compound registered a concentration at 4 h in series [6] of 32500 ng/mL. In addition, the MIC was 1.56 µg/mL in series [1] (setting [7]); 25 µg/mL in series [2] (setting [8]); 0.39 µg/mL in series [3] (setting [9]); 25 µg/mL in series [4] (setting [10]); 0.2 µg/mL in series [5] (setting [11]).
Consider `CC1=C(C(=O)O)N2C(=O)[C@@H](NC(=O)[C@H](N)c3ccccc3)[C@H]2SC1` [YY, Cefalexin, reference compound], for which the MIC in series [1] (Serratia marcescens) is above 100 µg/mL; in series [2] it was above 100 µg/mL; in series [3] (Klebsiella pneumoniae), 100 µg/mL (≈ 288 µM); in series [4] (Pseudomonas aeruginosa), above 100 µg/mL; in series [5] (Escherichia coli) it was 12.5 µg/mL (≈ 36 µM).
As to `CCOC(=O)/C=C\SC1=C(C(=O)O)N2C(=O)[C@@H](NC(=O)/C(=N\OCC(=O)O)c3csc(N)n3)[C@H]2SC1` [B], the concentration at 1 h in series [6] was found to be 34000 ng/mL. Besides, the concentration at 2 h in series [6] came to 37100 ng/mL. This compound returned a concentration at 4 h in series [6] of 31000 ng/mL. Further, the MIC in series [1] (setting [7]) stood at 0.39 µg/mL (≈ 0.699 µM); in series [2] (setting [8]), 12.5 µg/mL (≈ 22.4 µM); in series [3] (setting [9]), 0.39 µg/mL (≈ 0.699 µM); in series [4] (setting [10]) it was 3.13 µg/mL (≈ 5.61 µM); in series [5] (setting [11]), 0.2 µg/mL (≈ 0.359 µM).
